According to US20130101664A1, “MUC1 LIGAND TRAPS FOR USE IN TREATING CANCERS” (priority 2011, published 2013):

Columns and labels:
[1] = test system: ZR-75-1 breast carcinoma cells; test: Cell proliferation by trypan blue exclusion, GO-101 with oxidative stress (H2O2); type: cell-based, human; details: 500 nM GO-101 and/or 1 mM H2O2, 3 days, compared to mock conditions
Procedure: FIG. 8. ZR-75-1 human breast carcinoma cells were treated with 500 nM GO-101 and/or 1 mM H2O2 for 3 days and the cell proliferation was measured by trypan blue exclusion method. The percent proliferation is shown to that compared with control.
To assess the effects of GO-101 on sensitivity of human carcinoma cells to oxidative stress, the inventors treated ZR-75-1 breast carcinoma cells with 500 nM GO-101 in the presence and absence of […]. As a control, cells were also separately treated with hFc (data not shown). Following treatment for 3 days, viable cells were then counted using trypan blue exclusion. […] Importantly, the ZR-75-1 cells exposed to 500 nM GO-101, but not hFc, was associated with ˜42% growth inhibition. However, there was a ˜90% growth inhibition when cells were treated with both H2O2 and GO-101 (FIG. 8).

[2] = test system: ZR-75-1 human breast carcinoma xenograft; type: in vivo; details: doxorubicin 6 mg/kg i.v. Q4D×3
Procedure: ZR-75-1 human breast carcinoma bearing nu/nu mice were dosed with either doxorubicin alone (squares) or in combination with 1 mg/kg GO-101 i.p daily×21 days (circles). Tumors were measured twice a week.
ZR-75-1 Hormone-dependent Breast Carcinoma Xenograft Model: Preliminary 1st TRAP Study in Combination with Doxorubicin (mean tumor volume+SE). ZR-75-1 human breast carcinoma bearing nu/nu mice were dosed with either doxorubicin 6 mg/kg i.v. Q4D×3 (squares) or 1 mg/kg GO-101 i.p daily×21 days+doxorubicin 6 mg/kg i.v. Q4D×3 (circles). Mice were weighed 2-3 times a week and tumor measurements were also performed 2-3 times a week. Points, mean tumor volumes±SE.
GO-101. To avoid freeze/thaw cycles, GO-101 protein (HG-batch GENU001) was prepared as multiple aliquots of frozen solution in PBS into individual treatment doses. The frozen tubes were stored at −80° C. until initiation of dosing. On each day of treatment, the appropriate tubes were allowed to thaw at room temperature. The resulting solution in each tube was clear and colorless with a pH of ˜6.5.
Upon receipt, the clear, red solution was stored at 4° C. protected from light. Dosing solutions were prepared just prior to each treatment by dilution with saline.
About 9-10 weeks old female mice (on the day of treatment) (CRL: NUFoxn1nu) were obtained from Charles River Labs. The mice were fed irradiated Rodent Diet 5053 and water ad libitum. […]

[3] = severe sepsis; decrease from about 31%; cited from earlier work

OO [H2O2]
inhibition in cell proliferation / growth inhibition [1]: ~66%

COc1cccc2c1C(=O)c1c(O)c3c(c(O)c1C2=O)C[C@@](O)(C(=O)CO)C[C@@H]3O[C@H]1C[C@H](N)[C@H](O)[C@H](C)O1 [doxorubicin]
tumor regressions / tumor free survivors [2]: neither tumor regressions nor tumor free survivors
anti-tumor activity based upon tumor growth delay ([2]; p=0.0356): significant

drotrecogin alfa
mortality [3]: about 25%
